Test system: fungal pathogen
Assay: Control treatments with processing aids alone on young plants inoculated with fungal pathogen
Format: in vivo
Conditions: applied alone at final rates similar to those in the pellet fractions; compared with UTC plants
Excerpt: GEROPON® (SDOS) and C12EO25 were also each applied to young plants at final rates similar to those in the pellet fractions. The young plants were later inoculated with fungal pathogen and the each plant was scored for percent control of the pathogen relative to the UTC plants.

Substance: polyoxyethylene (25) dodecyl ether [C12EO25]
- inherent antifungal activity: no inherent antifungal activity

— patent US10703775B2, “Method of purifying antifungal compounds and exopolysaccharides from a microbial cell culture” (Bayer CropScience LP, priority 2016, dated 2020)
